Entries after “also recorded” stand apart in the source; their conditions may differ.

In assay [1] the test system is human melanoma cell line WM2664. Kind of assay: Cell cycle analysis (BrdU incorporation in vitro), WM2664. Particulars: for cell cycle effect: WM2664, 24 hours exposure. The format is cell-based. From the text:
(§1) FIG. 3A is a set of graphs showing the dose-response curves for cycle analysis in both cyclin-dependent kinase 4/6 (CKD4/6)-dependent cells (human telomerized human diploid fibroblasts (tHDFs, left-hand column of graphs) and a CDK4/6-dependent human melanoma cell line (WM2664, middle column of graphs)) and in CDK4/6-independent cells (a human retinoblastoma tumor suppressor protein (RB)-null melanoma cell line (A2058), right-hand column of graphs). […] The percentage of cells in the G1 phase is indicated by the data shown in the open triangles, while the percentage of cells in the S phase is shown by the data in the shaded circles and the percentage of cells in the G2/M phase is indicated by the data in the double “x”s.
FIG. 8 is a set of representative cell cycle dot-plots for cyclin-dependent kinase 4/6 (CDK4/6)-dependent (WM2664) human melanoma cells (top two rows) and CDK4/6-independent (A2058) human melanoma cells (bottom two rows) that had been treated with dimethyl sulfoxide (DMSO) as a control or with 300 nM, 1 μM, 3 μM, 10 μM or 30 μM of trans-4-[[6-ethylamino)-2-[[2-phenylmethyl)-1H-indol-5-yl]amino]-4-pyrimidinyl]amino]]-cyclohexanol (CINK4).
(§2) Cell Lines: KPTR1, KPTR4. and KPTR5 were derived from tumor-bearing TyrRAS+Ink4a/Arf−/− by standard procedures and cultured in RPMI+10% fetal bovine serum (FBS). Telomerized HDFs (tHDFs, also known as HS68) were cultured in DMEM+10% FBS with penicillin and streptomycin. The same conditions were used for A2058 and WM2664, human melanoma cell lines with known RB-pathway mutations: A2058 is RB-null, whereas WM2664 lacks p16^INK4a/Arf. See Shields, et al., Cancer Res., 67, 1502-1512 (2007). Cells were irradiated for indicated doses in a Rad Source Inc. (Alpharetta, Ga., United States of America) RS-2000 Biological Irradiator at 160 kV, 25.0 mA, at distance setting 1, with a dose rate of 103 rads/min.
(§3) BrdU Incorporation in vitro: Cells were plated and allowed to adhere overnight or at least 6 hours prior to adding CDK4/6 inhibitor at the indicated concentrations. Cells were grown for 24 hours in the presence of CDK4/6 inhibitor. 15 minutes prior to cell harvesting, 5-Bromo-2-deoxyuridine (BrdU) was added to the media at a final concentration of 10 μM. The cells were then washed, trypsinized, pelleted, fixed, permeabilized, stained, and measured on a flow cytometer as described in manufacturer directions for the BrdU Kit (BD Biosciences Pharmingen, San Diego, Calif., United States of America).
(§4) The proliferation of seven RB-deficient human small cell lung cancer lines was also resistant to the selective CDK4/6 inhibitors.
(In general: Incorporation of labelled thymidine or its analogues reports DNA synthesis.)

In assay [2] the test system is telomerized human diploid fibroblasts (tHDF). Kind of assay: Cell cycle analysis (BrdU incorporation in vitro), tHDF. The format is cell-based. Particulars: 24 hours exposure.
From the text: as §1, §2, §3, §4

Another assay relates to tHDF (HS68) cells. Kind of assay: Clonogenic assay after IR, tHDF (HS68). The format is cell-based, human. Particulars: PD0332991 100 nM, 2BrIC 2 μM, CINK4 6 μM, IR 0-9 Gy. As for the experimental part: FIG. 6A is a set of micrograph images of crystal violet stained cell cultures of cyclin-dependent kinase 4/6 (CDK4/6)-dependent cells (HS68) plated at different cell/well ratios and treated with either dimethyl sulfoxide (DMSO) as a negative control or with the selective CDK4/6 inhibitor 2-bromo-12,13-dihydro-5H-indolo[2,3-a]pyrrolo[3,4]carbazole-5,6-dione (2BrIC) at 2 μM for 24 hours prior to exposure to ionizing radiation at 0, 1.5, 3, 6, or 9 gray (Gy), as indicated.
Data plotted is the area/cell ratio of PD0332991 treated cells to dimethyl sulfoxide (DMSO) treated cells. Error bars show standard error of the mean.
FIG. 9A is a set of micrograph images of cell cultures of cyclin-dependent kinase 4/6 (CDK4/6)-dependent cells (HS68) plated at different cell/well ratios and pretreated with either dimethyl sulfoxide (DMSO) as a control or with the nonselective CDK4/6 inhibitor trans-4-[[6-ethylamino)-2-[[1-phenylmethyl)-1H-indol-5-yl]amino]-4-pyrimidinyl]amino]]-cyclohexanol (CINK4) at 6 μM for 24 hours prior to exposure to ionizing radiation at 0, 1.5, 3, 6, or 9 gray (Gy), as indicated. The plates were stained with crystal violet to visualize cell colonies.
Clonogenic Assay: The clonogenic assay was performed as previously described (see Franken et al., Nature protocols, 1, 2315-1319 (2006)) with cells plated in a six-well plate at least 6 hours prior to treatment with CDK inhibitor for 24 hours, with 6 Gy IR occurring 12 hours after initiation of CDK inhibitor exposure. Cells were grown for 16 days, washed, fixed, and stained with crystal violet. Plates were then imaged using an Odyssey infrared scanner (Li-Cor Biosciences, Lincoln, Nebr., United States of America) and quantified using the accompanying software.

Assay [3] has as its system RB-null melanoma line A2058. Kind of assay: Cell cycle analysis (BrdU incorporation in vitro), A2058. Format: cell-based, human. The conditions noted are these: A2058, concentrations between 300 nM and 30 μM. From the text: FIG. 3A is a set of graphs showing the dose-response curves for cycle analysis in both cyclin-dependent kinase 4/6 (CKD4/6)-dependent cells (human telomerized human diploid fibroblasts (tHDFs, left-hand column of graphs) and a CDK4/6-dependent human melanoma cell line (WM2664, middle column of graphs)) and in CDK4/6-independent cells (a human retinoblastoma tumor suppressor protein (RB)-null melanoma cell line (A2058), right-hand column of graphs). […] The percentage of cells in the G1 phase is indicated by the data shown in the open triangles, while the percentage of cells in the S phase is shown by the data in the shaded circles and the percentage of cells in the G2/M phase is indicated by the data in the double “x”s. […]
BrdU Incorporation in vitro: Cells were plated and allowed to adhere overnight or at least 6 hours prior to adding CDK4/6 inhibitor at the indicated concentrations. […] The cells were then washed, trypsinized, pelleted, fixed, permeabilized, stained, and measured on a flow cytometer as described in manufacturer directions for the BrdU Kit (BD Biosciences Pharmingen, San Diego, Calif., United States of America). […]

On to `CC[C@H](CO)Nc1nc(NCc2ccccc2)c2ncn(C(C)C)c2n1` [roscovitine, Roscovitine], for which the cell cycle effect entry in assay [1] is “G2/M block, intra-S arrest, or cell death (sub-GO)”; in assay [2] it was “G2/M block, intra-S arrest, or cell death (sub-GO)”.
For `CN1CC[C@H](c2c(O)cc(O)c3c(=O)cc(-c4ccccc4Cl)oc23)[C@H](O)C1` [flavopiridol], the cell cycle effect entry in assay [1] is “G2/M block, intra-S arrest, or cell death (sub-GO)”; in assay [2], “G2/M block, intra-S arrest, or cell death (sub-GO)”.
As to `CCNc1cc(N[C@H]2CC[C@H](O)CC2)nc(Nc2ccc3c(ccn3Cc3ccccc3)c2)n1` [CINK4], the “clonogenic cell survival after IR (area/cell ratio relative to DMSO)” value in the assay with tHDF (HS68) cells is “failed to enhance cell survival; also recorded: lack of enhanced cell survival”. Besides, the “substantially pure G1 arrest” value was “did not induce a substantially pure (i.e. “clean”) G1 arrest” in assay [1] (WM2664, concentrations between 300 nM and 30 μM); “did not induce a substantially pure (i.e. “clean”) G1 arrest” in assay [3].
Take `COc1ccc(F)c(F)c1C(=O)c1cnc(NC2CCN(S(C)(=O)=O)CC2)nc1N` [Compound 7]: the cell cycle effect result was “G2/M block, intra-S arrest, or cell death (sub-GO)” in assay [1] and “G2/M block, intra-S arrest, or cell death (sub-GO)” in assay [2].
